Measurements taken from patent US20030013660A1, “Dioxolane analogs for improved inter-cellular delivery” (Shire BioChem Inc., priority 2000, published 2003).
Where “and” joins values, the source holds several entries; their conditions need not be identical. Equal values may be shown once. Read-outs that look alike come from different tables or passages of the source.

Columns and labels:
SF-268 = assay: 3H-TdR incorporation at 72 hr (24 hr drug exposure, wash, 48 hr); type: cell-based, Human; details: 24 h drug exposure, 72 hr assay
Method: (§1) Exposition of 24 hr to drug, wash, incubated for another 48 hr (total of 72 hr assay)
(§2) (3H-Thymidine Incorporation Assay)

H-460 [1] = assay: as above; type: cell-based, Human
Method: as §1, §2

MCF-7 = assay: as above; type: cell-based, Human
Method: as §1, §2

CEM/dCK- [2] = assay: as above; type: cell-based; details: for IC50: 24 h drug exposure, 72 hr assay; for Factor* (Resistance Factor = Ratio of dCK- on Wild-type CCRF-CEM): ratio of IC50 CEM/dCK- to IC50 CCRF-CEM
Method: as §1, §2

CCRF-CEM [3] = assay: as above; type: cell-based; details: read-out: IC50 in μM (3H-TdR incorporation at 72 hr) CCRF-CEM 24 h, CCRF-CEM T-cell Leukemia, 72 hr assay
Method: as §1, §2

H-460 [4] = assay: 3H-TdR (3H-thymidine) incorporation assay at 72 hr; type: cell-based, Human; details: 3H-TdR incorporation at 72 hr
CEM/dCK- [5] = assay: 3H-TdR (3H-thymidine) incorporation assay at 72 hr; type: cell-based; details: Homo sapiens, CCRF-CEM, read-out: IC50 CEM/dCK- 24 h, 24 h drug exposure, wash, another 48 hr; deoxycytidine kinase-deficient CCRF-CEM
Method: (§3) Table of IC50 Values (μM) for Controls
as §1, §2

CCRF-CEM [6] = assay: 3H-TdR (3H-thymidine) incorporation assay at 72 hr; type: cell-based; details: 3H-TdR incorporation at 72 hr
Method: as §3, §1, §2

[7] = Homo sapiens, SF-268, read-out: IC50 in μM (3H-TdR incorporation at 72 hr) SF-268 24 h, SF-268 Human Central Nervous System Tumor
[8] = Homo sapiens, NCI-H460, read-out: IC50 in μM (3H-TdR incorporation at 72 hr) H-460 24 h, H-460 Human Lung Carcinoma, 72 hr assay
[9] = Homo sapiens, MCF7, read-out: IC50 in μM (3H-TdR incorporation at 72 hr) MCF-7 24 h, MCF-7 Human Breast Carcinoma, 72 hr assay
[10] = Homo sapiens, CCRF-CEM, read-out: IC50 in μM (3H-TdR incorporation at 72 hr) CEM/dCK- 24 h, CCRF-CEM deoxycytidine kinase-deficient
[11] = read-out: IC50 in μM (3H-TdR incorporation at 72 hr) SF-268 24 h, SF-268 Human Central Nervous System Tumor
[12] = read-out: IC50 in μM (3H-TdR incorporation at 72 hr) MCF-7 24 h, MCF-7 Human Breast Carcinoma, 72 hr assay
[13] = read-out: IC50 in μM (3H-TdR incorporation at 72 hr) CEM/dCK- 24 h, CCRF-CEM deoxycytidine kinase-deficient

Row | IC50 (SF-268; [7]) [µM] | IC50 (H-460 [1]; [8]) [µM] | IC50 (MCF-7; [9]) [µM] | IC50 (CEM/dCK- [2]; [10]) [µM] | IC50 (CCRF-CEM [3]; Homo sapiens, CCRF-CEM) [µM] | IC50 (SF-268; [11]) | IC50 (MCF-7; [12]) | IC50 (H-460 [4]; Homo sapiens, NCI-H460, read-out: IC50 H-460 24 h, 24 h drug exposure, wash, another 48 hr) [µM] | IC50 (H-460 [4]; read-out: IC50 H-460 24 h, 24 h drug exposure, wash, another 48 hr) [µM] | IC50 (CCRF-CEM [3]) [µM] | IC50 (CEM/dCK- [5]) [µM] | IC50 (CCRF-CEM [6]; Homo sapiens, CCRF-CEM, read-out: IC50 CCRF-CEM 24 h, 24 h drug exposure, wash, another 48 hr) [µM] | IC50 (CCRF-CEM [6]; read-out: IC50 CCRF-CEM 24 h, 24 h drug exposure, wash, another 48 hr) [µM] | IC50 (H-460 [1]; read-out: IC50 in μM (3H-TdR incorporation at 72 hr) H-460 24 h, H-460 Human Lung Carcinoma, 72 hr assay) [µM] | IC50 (CEM/dCK- [2]; [13]) [µM] | Structure (SMILES) | Factor* (Resistance Factor = Ratio of dCK- on Wild-type CCRF-CEM) (CEM/dCK- [2])
1 | 1.6 | 0.43 | 0.39 | > 100 | 0.13 | – | – | – | – | – | – | – | – | – | – | CCCCN(/C=N/c1ccn([C@@H]2CO[C@H](CO)O2)c(=O)n1)CCCC (stereo in doubt) [Compound 221, N,N-Dibutyl-N′-[1-(2-hydroxymethyl [1,3]dioxolan-4-yl)-2-oxo-1,2-dihydro-pyrimidin-4-yl]-formamidine] | >769
2 | 0.85 | 0.21 | 0.19 | > 100 | 0.11 | – | – | – | – | – | – | – | – | – | – | CN(C)/C=N/c1ccn([C@@H]2CO[C@H](CO)O2)c(=O)n1 (stereo in doubt) [Compound 222, N′-[1-(2-HYDROXYMETHYL- [1,3]DIOXOLAN-4-YL)-2- OXO-1,2-DIHYDRO- PYRIMIDIN-4-YL]-N,N- DIMETHYL-FORMAMIDINE] | >909
3 | 0.12 | 3.7 | 8.6 | > 100 | 5.1 | – | – | – | – | – | – | – | – | – | – | O=c1nc(/N=C2/CCCN2Cc2ccccc2)ccn1[C@@H]1CO[C@H](CO)O1 (stereo in doubt) [Compound 236, 4-(1-BENZYL-PYRROLIDIN- 2-YLIDENEAMINO)-1-(2- HYDROXYMETHYL- [1,3]DIOXOLAN-4-YL)-1H- PYRIMIDIN-2-ONE] | >20
4 | 12 | – | 5.7 | > 100 | 3.3 | 17 µM | 3.6 µM | 8.4 | 6.4 | 4.1 | > 100 | 2.2 | 2.8 | – | – | Cc1cccc(C)c1C(=O)OC[C@H]1OC[C@@H](n2ccc(N)nc2=O)O1 [Compound 162, 1-[2-(2,6-DIMETHYL- BENZOYLOXYMETHYL)- [1,3]DIOXOLAN-4-YL]-2- OXO-1,2-DIHYDRO PYRIMIDIN-4-YL- AMMONIUM; CHLORIDE] | –
5 | 0.025 | 0.0092 | 0.033 | 27 | 0.0033 | – | – | – | – | – | – | – | – | – | – | Nc1ccn([C@@H]2CO[C@H](COC(=O)c3ccccc3)O2)c(=O)n1 [Compound 163, BENZOIC ACID 4-(4- AMINO-2-OXO-2H- PYRIMIDIN-1-YL)- [1,3]DIOXOLAN-2- YLMETHYL ESTER] | 8,182
6 | 16 | 3.4 | 10 | > 100 | 1.8 | – | – | – | – | – | – | – | – | – | – | O=C(NCNc1ccn([C@@H]2CO[C@H](CO)O2)c(=O)n1)c1ccccc1 [Compound 165, N-{[1-(2-HYDROXYMETHYL- [1,3]DIOXOLAN-4-YL)-2- OXO-1,2-DIHYDRO- PYRIMIDIN-4-YLAMINO]- METHYL}-BENZAMIDE] | >56
7 | 82 | 45 | 41 | > 100 | 38 | – | – | – | – | – | – | – | – | – | – | C#CCN(CC#C)c1ccn([C@@H]2CO[C@H](CO)O2)c(=O)n1 [Compound 171, (S,S) 4-(DI-PROP-2′- YNYL-AMINO)-1-(2″- HYDROXYMETHYL- [1,3]DIOXOLAN-4″-YL)- 1H-PYRIMIDIN-2-ONE] | >2.6
8 | 2 | 6.1 | 17 | > 100 | 2.6 | – | – | – | – | – | – | – | – | – | – | C#CCOC[C@H]1OC[C@@H](n2ccc(N)nc2=O)O1 [Compound 173, (S,S)-4-AMINO-1-(2′- PROP-2′-YNYLOXYMETHYL- [1,3]DIOXOLAN-4′-YL)- 1H-PYRIMIDIN-2-ONE] | >38
9 | 38 | 11 | 21 | > 100 | 9 | – | – | – | – | – | – | – | – | – | – | COc1ccc(C(=O)Nc2ccn([C@@H]3CO[C@H](COC(=O)c4ccc(OC)cc4)O3)c(=O)n2)cc1 [Compound 174, 4-METHOXY-BENZOIC ACID 4-[4-(4-METHOXY- BENZOYLAMINO)-2-OXO-2H- PYRIMIDIN-1-YL]- [1,3]DIOXOLAN-2- YLMETHYL ESTER] | >11
10 | 32 | 6.3 | 3.1 | > 100 | 3.5 | – | – | – | – | – | – | – | – | – | – | COc1ccc(C(=O)Nc2ccn([C@@H]3CO[C@H](CO)O3)c(=O)n2)cc1 [Compound 175, N-[1-(2-HYDROXYMETHYL- [1,3]DIOXOLAN-4-YL)-2- OXO-1,2-DIHYDRO- PYRIMIDIN-4-YL]-4- METHOXY-BENZAMIDE] | >29
11 | 0.057 | 0.04 | – | 38 | 0.014 | 0.032 µM | – | – | – | 0.011 | – | – | – | 0.043 | 68 | COc1ccc(C(=O)OC[C@H]2OC[C@@H](n3ccc(N)nc3=O)O2)cc1 [Compound 176, 4-METHOXY-BENZOIC ACID 4-(4-AMINO-2-OXO-2H- PYRIMIDIN-1-YL)- [1,3]DIOXOLAN-2- YLMETHYL ESTER] | –
12 | < 0.0001 | < 0.0001 | < 0.0001 | – | < 0.0001 | – | – | – | – | – | – | – | – | – | – | CCCCCCc1ccc(C(=O)OC[C@H]2OC[C@@H](n3ccc(N)nc3=O)O2)cc1 [Compound 191, 4-HEXYL-BENZOIC ACID 4- (4-AMINO-2-OXO-2H- PYRIMIDIN-1-YL)- [1,3]DIOXOLAN-2-YL METHYL ESTER] | –
13 | < 0.0001 | < 0.0001 | < 0.0001 | – | < 0.0001 | – | – | – | – | – | – | – | – | – | – | O=C(CCCCCCCc1ccccc1)Nc1ccn([C@@H]2CO[C@H](CO)O2)c(=O)n1 [Compound 197, 8-PHENYL-OCTANOIC ACID [1-(2-HYDROXYMETHYL- [1,3]DIOXOLAN-4-YL)-2- OXO-1,2-DIHYDRO- PYRIMIDIN-4-YL]-AMIDE] | –
14 | < 0.0001 | < 0.0001 | – | – | < 0.0001 | – | – | – | – | – | – | – | – | – | – | Nc1ccn([C@@H]2CO[C@H](COC(=O)CCCCCCCc3ccccc3)O2)c(=O)n1 [Compound 198, 8-PHENYL-OCTANOIC ACID 4-(4-AMINO-2-OXO-2H- PYRIMIDIN-1-YL)- [1,3]DIOXOLAN-2-YL METHYL ESTER] | –
15 | 12 | – | 13 | 18 | 11 | 17 µM and 15 µM | 9.6 µM and 11 µM | – | – | 9.7 | – | – | – | – | 22 | CCC(CC)(CCCCCCc1ccccc1)C(=O)OC[C@H]1OC[C@@H](n2ccc(N)nc2=O)O1 [Compound 233, 2,2-DIETHYL-8-PHENYL- OCTANOIC ACID 4-(4- AMINO-2-OXO-2H- PYRIMIDIN-1-YL)- [1,3]DIOXOLAN-2-YL METHYL ESTER] | –

Row | Structure (SMILES) | IC50 (SF-268; [7]) [µM] | IC50 (H-460 [1]; [8]) [µM] | IC50 (MCF-7; [9]) [µM] | IC50 (CEM/dCK- [2]; [10]) [µM] | IC50 (CCRF-CEM [3]; Homo sapiens, CCRF-CEM) [µM] | IC50 (SF-268; [11]) | IC50 (MCF-7; [12]) | IC50 (H-460 [4]; Homo sapiens, NCI-H460, read-out: IC50 H-460 24 h, 24 h drug exposure, wash, another 48 hr) [µM] | IC50 (H-460 [4]; read-out: IC50 H-460 24 h, 24 h drug exposure, wash, another 48 hr) [µM] | IC50 (CCRF-CEM [3]) [µM] | IC50 (CEM/dCK- [5]) [µM] | IC50 (CCRF-CEM [6]; Homo sapiens, CCRF-CEM, read-out: IC50 CCRF-CEM 24 h, 24 h drug exposure, wash, another 48 hr) [µM] | IC50 (CCRF-CEM [6]; read-out: IC50 CCRF-CEM 24 h, 24 h drug exposure, wash, another 48 hr) [µM] | IC50 (H-460 [1]; read-out: IC50 in μM (3H-TdR incorporation at 72 hr) H-460 24 h, H-460 Human Lung Carcinoma, 72 hr assay) [µM] | IC50 (CEM/dCK- [2]; [13]) [µM] | Factor* (Resistance Factor = Ratio of dCK- on Wild-type CCRF-CEM) (CEM/dCK- [2])
16 | CN(C)CCCOC(=O)OC[C@H]1OC[C@@H](n2ccc(N)nc2=O)O1.O=C(O)C(F)(F)F [Compound 164, CARBONIC ACID 4-(4- AMINO-2-OXO-2H- PYRIMIDIN-1-YL)- [1,3]DIOXOLAN-2- YLMETHYL ESTER 3- DIMETHYLAMINO-PROPYL ESTER TRIFLUORO-ACETIC ACID SALT] | 0.28 | 0.13 | 0.14 | > 100 | 0.06 | – | – | – | – | – | – | – | – | – | – | 1667
17 | CN(C)CCCCOC(=O)Nc1ccn([C@@H]2CO[C@H](CO)O2)c(=O)n1.O=C(O)C(F)(F)F [Compound 169, [1-(2-HYDROXYMETHYL- [1,3]DIOXOLAN-4-YL)-2- OXO-1,2-DIHYDRO- PYRIMIDIN-4-YL]- CARBAMIC ACID 4- DIMETHYLAMINO-BUTYL ESTER TRIFLUOROACETIC ACID SALT] | 7.1 | 8.2 | 5.1 | > 100 | 2 | – | – | – | – | – | – | – | – | – | – | >50
